Blank lines part the entries; values can stand above or below the compound they belong to. Activity calls are given as the source filed them. The rule behind the calls is not given here.
How the values were obtained:
[1] = target: T1, Tryptophan 5-hydroxylase 1 (Homo sapiens, UniProt P17752); experiment: Inhibition of TPH1
T1 sequence (P17752 whole entry): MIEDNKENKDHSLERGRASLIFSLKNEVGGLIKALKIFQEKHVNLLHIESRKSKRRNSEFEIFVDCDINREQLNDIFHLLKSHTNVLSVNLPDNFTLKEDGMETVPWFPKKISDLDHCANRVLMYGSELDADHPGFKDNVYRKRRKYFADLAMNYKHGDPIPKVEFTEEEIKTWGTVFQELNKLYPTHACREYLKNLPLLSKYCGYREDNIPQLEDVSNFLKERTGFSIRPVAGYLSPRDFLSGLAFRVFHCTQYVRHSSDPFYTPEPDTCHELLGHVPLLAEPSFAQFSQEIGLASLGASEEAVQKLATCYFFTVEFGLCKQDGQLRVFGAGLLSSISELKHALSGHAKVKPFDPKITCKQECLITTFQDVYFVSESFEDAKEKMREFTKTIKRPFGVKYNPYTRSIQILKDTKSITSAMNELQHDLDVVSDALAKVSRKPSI

[2] = target: T2, Tryptophan 5-hydroxylase 1 (Rattus norvegicus, UniProt P09810); experiment: Inhibition of TPH1 in RBL cells assessed as inhibition of serotonin biosynthesis; type: cell-based
T2 sequence (P09810 whole entry): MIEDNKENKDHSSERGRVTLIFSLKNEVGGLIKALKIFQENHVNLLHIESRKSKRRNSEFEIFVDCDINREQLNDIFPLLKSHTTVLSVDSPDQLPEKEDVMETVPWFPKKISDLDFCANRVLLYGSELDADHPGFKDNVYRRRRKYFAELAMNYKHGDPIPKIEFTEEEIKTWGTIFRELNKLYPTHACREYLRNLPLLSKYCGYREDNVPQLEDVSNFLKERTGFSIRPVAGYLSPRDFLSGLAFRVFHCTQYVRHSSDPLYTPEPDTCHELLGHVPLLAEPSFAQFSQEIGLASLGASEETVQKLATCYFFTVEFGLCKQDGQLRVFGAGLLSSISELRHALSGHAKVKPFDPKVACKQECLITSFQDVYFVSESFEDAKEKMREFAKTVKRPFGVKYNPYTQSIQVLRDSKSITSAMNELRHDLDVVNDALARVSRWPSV

[3] = test system: RBL; experiment: Ratio of EC50 for TPH1 in RBL cells to IC50 for TPH1; type: cell-based
[4] = Volume of distribution at steady state in C57 albino mouse 1 mg/kg, iv; type: ADME, organism-based; set-up: dose 1 mg/kg, route intravenous; settings: in vivo, read-out: Vdss
[5] = Half life in C57 albino mouse at 1 mg/kg, iv; type: ADME, organism-based; set-up: dose 1 mg/kg, route intravenous; settings: in vivo
[6] = Tmax in C57 albino mouse at 10 mg/kg, po; type: ADME, organism-based; set-up: dose 10 mg/kg, route oral; settings: in vivo
[7] = Cmax in C57 albino mouse at 10 mg/kg, po; type: ADME, organism-based; set-up: dose 10 mg/kg, route oral; settings: in vivo
[8] = AUC (0 to 6 hrs) in C57 albino mouse at 1 mg/kg, iv; type: ADME, organism-based; set-up: time < 6 hr, dose 1 mg/kg, route intravenous; settings: plasma
[9] = AUC (0 to 24 hrs) in C57 albino mouse at 10 mg/kg, po; type: ADME, organism-based; set-up: time < 24 hr, dose 10 mg/kg, route oral; settings: plasma
[10] = AUC (0 to infinity) in C57 albino mouse at 1 mg/kg, iv; type: ADME, organism-based; set-up: time infinity, dose 1 mg/kg, route intravenous; settings: plasma
[11] = Oral bioavailability in C57 albino mouse at 10 mg/kg; type: ADME, organism-based; settings: in vivo
[12] = Drug level in C57 albino mouse brain at 10 mg/kg, po after 2 hrs; type: ADME, organism-based; set-up: dose 10 mg/kg, route oral; settings: read-out: Drug uptake
[13] = Drug level in C57 albino mouse brain at 10 mg/kg, po after 6 hrs; type: ADME, organism-based; set-up: dose 10 mg/kg, route oral; settings: read-out: Drug uptake
[14] = Drug level in C57 albino mouse brain after 24 hrs; type: ADME, tissue-based; settings: read-out: Drug uptake
[15] = test system: Mus musculus; experiment: Reduction of 5HT level in mouse intestine at 30 mg/kg, po twice a day; type: functional; set-up: scale not given: the % may be the effect or the level left
[16] = test system: Mus musculus; experiment: Reduction of 5HT level in mouse intestine at 90 mg/kg, po twice a day; type: functional; set-up: scale not given: the % may be the effect or the level left
[17] = test system: Mus musculus; experiment: Reduction of 5HT level in mouse colon at 30 mg/kg, po twice a day; type: functional; set-up: scale not given: the % may be the effect or the level left
[18] = test system: Mus musculus; experiment: Reduction of 5HT level in mouse colon at 90 mg/kg, po twice a day; type: functional; set-up: scale not given: the % may be the effect or the level left
[19] = Ratio of drug level in brain to plasma in C57 albino mouse at 10 mg/kg, po after 2 hrs; type: ADME, organism-based; set-up: dose 10 mg/kg, route oral; settings: read-out: BPR
[20] = Ratio of drug level in brain to plasma in C57 albino mouse at 10 mg/kg, po after 6 hrs; type: ADME, organism-based; set-up: dose 10 mg/kg, route oral; settings: read-out: BPR
[21] = Half life in C57 albino mouse at 10 mg/kg, po; type: ADME, organism-based; set-up: dose 10 mg/kg, route oral; settings: in vivo
[22] = AUC (0 to infinity) in C57 albino mouse at 10 mg/kg, po; type: ADME, organism-based; set-up: time infinity, dose 10 mg/kg, route oral; settings: plasma
[23] = Clearance in C57 albino mouse plasma at 1 mg/kg, iv; type: ADME, organism-based; set-up: dose 1 mg/kg, route intravenous
[24] = test system: Mus musculus; experiment: Reduction of 5HT level in mouse intestine at 45 mg/kg, po twice a day after 3 days; type: functional, organism-based; set-up: dose 45 mg/kg
[25] = test system: Mus musculus; experiment: Reduction of 5HT level in mouse intestine at 90 mg/kg, po twice a day after 3 days; type: functional, organism-based; set-up: dose 90 mg/kg
[26] = test system: Mus musculus; experiment: Reduction of 5HT level in mouse brain at 45 mg/kg, po twice a day after 3 days; type: functional, organism-based; set-up: dose 45 mg/kg
[27] = test system: Mus musculus; experiment: Reduction of 5HT level in mouse brain at 90 mg/kg, po twice a day after 3 days; type: functional, organism-based; set-up: dose 90 mg/kg

IC50 [1]: 770 nM
SMILES: C[C@@H](Nc1nc(N)nc(N2CCC(C[C@H](N)C(=O)O)CC2)n1)c1ccc2ccccc2c1

IC50 [1]: 200 nM
SMILES: C[C@@H](Nc1nc(N)nc(-c2ccc(CC(N)C(=O)O)c(F)c2)n1)c1ccc2ccccc2c1 (some centres not stated)

IC50 [1]: 13 nM
SMILES: N[C@@H](Cc1ccc(-c2cnc(NCc3ccc4ccccc4c3)cn2)cc1)C(=O)O

IC50 [1]: 180 nM
EC50 [2]: 510 nM
SMILES: Nc1nc(OC(c2ccc3ccccc3c2)C(F)(F)F)cc(-c2ccc(C[C@H](N)C(=O)O)cc2)n1 (some centres not stated)
Ratio [3]: 3

IC50 [1]: 12600 nM
SMILES: C[C@@H](Nc1nc(N)nc(-c2ccn(C[C@H](N)C(=O)O)n2)n1)c1ccc2ccccc2c1

IC50 [1]: 24 nM
SMILES: Nc1nc(NCc2ccc3ccccc3c2)nc(-c2ccc(C[C@H](N)C(=O)O)cc2)n1

IC50 [1]: 31 nM
SMILES: CCn1c2ccccc2c2cc(CNc3cnc(-c4ccc(C[C@H](N)C(=O)O)cc4)cn3)ccc21

IC50 [1]: 32 nM
EC50 [2]: 1700 nM
SMILES: C[C@@H](Nc1cc(-c2ccc(C[C@H](N)C(=O)O)cc2)nc(N)n1)c1ccc2ccccc2c1

Vd [4]: 0.73 L/kg
half-life [5]: 3.26 h
Tmax [6]: 3.25 h
Cmax [7]: 641 nM
AUC(0-t) at 6 h [8]: 6.2 µM·h
AUC(0-t) at 24 h [9]: 6.09 µM·h
AUC(0-inf) [10]: 8.54 µM·h
bioavailability [11]: 7.6%
concentration at 2 h [12]: 6.05 nM
concentration at 6 h [13]: 6.15 nM
concentration at 24 h [14]: 0.38 nM
Kp at 2 h [19]: 0.01
Kp at 6 h [20]: 0.01
half-life [21]: 5.98 h
AUC(0-inf) [22]: 6.5 µM·h
clearance [23]: 3.33 mL/min/kg
SMILES: Nc1nc(OC(c2ccc(-c3cccc(F)c3)cc2)C(F)(F)F)cc(-c2ccc(C[C@H](N)C(=O)O)cc2)n1 (some centres not stated)
Activity [15]: 55%
Activity [16]: 70%
Activity [17]: 24%
Activity [18]: 36%

IC50 [1]: 380 nM
EC50 [2]: 11000 nM
SMILES: C[C@@H](Oc1cc(-c2ccc(C[C@H](N)C(=O)O)cc2)nc(N)n1)c1ccc2ccccc2c1

IC50 [1]: 3770 nM
SMILES: C[C@@H](Nc1nc(N)nc(-c2ccc(C(N)CC(=O)O)cc2)n1)c1ccc2ccccc2c1 (some centres not stated)

IC50 [1]: 190 nM
SMILES: N[C@@H](Cc1ccc(-c2cnc(NCc3cnc4ccccc4c3)cn2)cc1)C(=O)O

IC50 [1]: > 11000 nM
SMILES: C[C@@H](Nc1nc(N)nc(-c2cccc(CC(N)C(=O)O)c2)n1)c1ccc2ccccc2c1 (some centres not stated)

IC50 [1]: 11100 nM
SMILES: C[C@@H](Nc1nc(N)nc(-c2ccc(CC(C)(N)C(=O)O)cc2)n1)c1ccc2ccccc2c1 (some centres not stated)

IC50 [1]: 890 nM
SMILES: C[C@@H](Nc1nc(N)nc(-c2ccc(CC(N)C(=O)O)nc2)n1)c1ccc2ccccc2c1 (some centres not stated)

The remaining lines, values behind:

SMILES: Nc1nc(OC(c2ccccc2-n2ccc(C(F)(F)F)n2)C(F)(F)F)cc(-c2ccc(C[C@H](N)C(=O)O)cc2)n1 (some centres not stated)
IC50 [1]: 29 nM
EC50 [2]: 70 nM

SMILES: COc1ccc(CNc2cnc(-c3ccc(C[C@H](N)C(=O)O)cc3)cn2)cc1OC
IC50 [1]: 69 nM

SMILES: COc1ccc(CNc2cnc(-c3ccc(C[C@H](N)C(=O)O)cc3)cn2)cc1OC1CCCC1
IC50 [1]: 45 nM

SMILES: Nc1nc(OC(c2sccc2-c2ccco2)C(F)(F)F)cc(-c2ccc(C[C@H](N)C(=O)O)cc2)n1 (some centres not stated)
IC50 [1]: 54 nM
EC50 [2]: 63 nM

SMILES: N[C@@H](Cc1ccc(-c2cnc(NCc3ccoc3)cn2)cc1)C(=O)O
IC50 [1]: 960 nM

SMILES: Cc1ccccc1-c1ccccc1CNc1cnc(-c2ccc(C[C@H](N)C(=O)O)cc2)cn1
IC50 [1]: 40 nM

SMILES: Nc1nc(OC(c2ccccc2-c2ccco2)C(F)(F)F)cc(-c2ccc(C[C@H](N)C(=O)O)cc2)n1 (some centres not stated)
IC50 [1]: 24 nM
EC50 [2]: 48 nM

SMILES: N[C@@H](Cc1ccc(-c2cnc(NCc3ccccn3)cn2)cc1)C(=O)O
IC50 [1]: 6150 nM

SMILES: COc1ccc(CNc2ccc(-c3ccc(C[C@H](N)C(=O)O)cc3)nn2)cc1OC1CCCC1
IC50 [1]: 970 nM

SMILES: N[C@@H](Cc1ccc(-c2cnc(NCc3ccc(-c4ccccc4)cc3)cn2)cc1)C(=O)O
IC50 [1]: 44 nM

SMILES: Cc1cccc(-c2ccccc2C(Oc2cc(-c3ccc(C[C@H](N)C(=O)O)cc3)nc(N)n2)C(F)(F)F)c1 (some centres not stated)
IC50 [1]: 70 nM
EC50 [2]: 56 nM

SMILES: N[C@@H](Cc1ccc(-c2cnc(NCC3CCCCC3)cn2)cc1)C(=O)O
IC50 [1]: 240 nM

SMILES: N#Cc1ccc(CNc2cnc(-c3ccc(C[C@H](N)C(=O)O)cc3)cn2)cc1
IC50 [1]: 110 nM

SMILES: N[C@@H](Cc1ccc(-c2cnc(NCC3CCc4ccccc4C3)cn2)cc1)C(=O)O (some centres not stated)
IC50 [1]: 46 nM

SMILES: COc1ccc(CNc2ccc(-c3ccc(C[C@H](N)C(=O)O)cc3)cc2)cc1OC1CCCC1
IC50 [1]: > 10000 nM

SMILES: CCOC(=O)[C@@H](N)Cc1ccc(-c2cc(OC(c3ccc(-c4cccc(F)c4)cc3)C(F)(F)F)nc(N)n2)cc1 (some centres not stated)
Activity [24]: Active
Activity [25]: Active
Activity [26]: inactive
Activity [27]: Active

SMILES: CCn1c2ccccc2c2cc(CNc3ccc(-c4ccc(C[C@H](N)C(=O)O)cc4)nc3)ccc21
IC50 [1]: > 10000 nM
